Experimental data as given in US3976768A, “Fortimicin A” (Abbott Laboratories, priority 1973, dated 1976).
In brackets after ≈: the same amount, converted by molar mass. Entries after “also recorded” stand apart in the source; their conditions may differ.

How the values were obtained:
[1] = tested on: Proteus mirabilis No. 825 KY 4292; assay: Antibacterial spectrum, agar dilution method (pH 8.0); format: cell-based; details: NO.825KY4292, read-out: Minimum inhibitory concentration
[2] = tested on: Pseudomonas aeruginosa BMH No. 1; assay: as above; format: cell-based; details: BMHNO.1, read-out: Minimum inhibitory concentration
[3] = tested on: Pseudomonas aeruginos KY 8510; assay: as above; format: cell-based; details: KY8510, pH 8, read-out: Minimum inhibitory concentration
[4] = tested on: Proteus vulgaris ATCC 6897; assay: as above; format: cell-based; details: ATCC6897, read-out: Minimum inhibitory concentration
[5] = tested on: bacteria of the genus Proteus; assay: Antibacterial activity against bacteria of the genus Proteus (in words); format: cell-based
Escherichia coli = assay: Antibacterial activity against resistant Escherichia coli (in words); format: cell-based; details: Escherichia coli resistant to various known antibiotics
Escherichia coli KY 8315 = assay: Antibacterial spectrum, agar dilution method (pH 8.0); format: cell-based; details: KY8315, resistant to Streptomycin, Kanamycin, Paromomycin and Neomycin, read-out: Minimum inhibitory concentration
Proteus vulgaris KY 4296 = assay: as above; format: cell-based; details: KY4296, resistant to nalidixic acid, read-out: Minimum inhibitory concentration
[6] = Solubility of the free base; format: physicochemical
[7] = tested on: Streptococcus faecalis ATCC 10541; assay: Antibacterial spectrum, agar dilution method (pH 8.0); format: cell-based; details: Enterococcus faecalis, ATCC10541, read-out: Minimum inhibitory concentration
[8] = tested on: Staphylococcus aureus KY 8950; assay: as above; format: cell-based; details: KY8950, resistant to Streptomycin, Tetracycline, Penicillin and sulfonamide, read-out: Minimum inhibitory concentration
[9] = tested on: Staphylococcus aureus KY 8956; assay: as above; format: cell-based; details: KY8956, resistant to Streptomycin, Paromomycin, Tetracycline, Erythromycin and Oleandomycin, read-out: Minimum inhibitory concentration
Escherichia coli KY 8314 = assay: as above; format: cell-based; details: KY8314, resistant to Streptomycin, read-out: Minimum inhibitory concentration
[10] = tested on: Proteus rettgeri Hambrook KY 4289; assay: as above; format: cell-based; details: Providencia rettgeri, read-out: Minimum inhibitory concentration
[11] = tested on: Staphylococcus aureus KY 8942; assay: as above; format: cell-based; details: KY8942, resistant to Kanamycin, Paramomycin, Streptomycin, Gentamicin and Nebramycin, read-out: Minimum inhibitory concentration
[12] = tested on: Bacillus cereus var. mycoides ATCC 9463; assay: microbe, parasite or virus in culture; format: cell-based; details: ATCC9463, pH 8, read-out: Minimum inhibitory concentration
[13] = tested on: Shigella sonnei ATCC 9290; assay: Antibacterial spectrum, agar dilution method (pH 8.0); format: cell-based; details: ATCC9290, read-out: Minimum inhibitory concentration
[14] = tested on: Proteus mirabilis No. 39 KY 4290; assay: as above; format: cell-based; details: NO.39KY4290, read-out: Minimum inhibitory concentration
[15] = tested on: Gram-positive and Gram-negative bacteria; assay: Antibacterial activity against Gram-positive and Gram-negative bacteria (in words); format: cell-based
[16] = tested on: Proteus mirabilis Finland 9 KY 4293; assay: Antibacterial spectrum, agar dilution method (pH 8.0); format: cell-based; details: FINLAND9KY4293, read-out: Minimum inhibitory concentration
Escherichia coli KY 8310 = assay: as above; format: cell-based; details: KY8310, resistant to Chloramphenicol, Streptomycin, Kanamycin, Gentamicin, Kanamycin B, Paromomycin, Tetracycline and Spectinomycin, read-out: Minimum inhibitory concentration
Escherichia coli KY 8302 = assay: as above; format: cell-based; details: KY8302, resistant to Chloramphenicol, Streptomycin, Kanamycin, Paromomycin, Tetracycline and Spectinomycin, read-out: Minimum inhibitory concentration
[17] = tested on: Staphylococcus aureus KY 8957; assay: as above; format: cell-based; details: KY8957, resistant to Chloramphenicol, Streptomycin, Kanamycin B, Tetracycline and Paromomycin, read-out: Minimum inhibitory concentration
[18] = tested on: Proteus vulgaris Abbott JJ, KY 4295; assay: as above; format: cell-based; details: read-out: Minimum inhibitory concentration
[19] = tested on: Staphylococcus aureus ATCC 6538P; assay: as above; format: cell-based; details: ATCC6538P, read-out: Minimum inhibitory concentration
Escherichia coli KY 8332 = assay: as above; format: cell-based; details: KY8332, resistant to Kanamycin and Tobramycin, read-out: Minimum inhibitory concentration
Escherichia coli KY 8331 = assay: as above; format: cell-based; details: KY8331, resistant to Kanamycin, Ribostamycin, Neomycin, Paromomycin and Lividomycin, read-out: Minimum inhibitory concentration
[20] = tested on: Bacillus subtilis No. 10707; assay: as above; format: cell-based; details: read-out: Minimum inhibitory concentration
[21] = tested on: Proteus rettgeri Booth KY 4288; assay: as above; format: cell-based; details: Providencia rettgeri, read-out: Minimum inhibitory concentration
[22] = tested on: Salmonella typhosa ATCC 9992; assay: as above; format: cell-based; details: Salmonella enterica, pH 8, read-out: Minimum inhibitory concentration
Escherichia coli ATCC 26 = assay: as above; format: cell-based; details: ATCC26, read-out: Minimum inhibitory concentration
[23] = tested on: Klebsiella pneumoniae ATCC 10031; assay: as above; format: cell-based; details: ATCC10031, read-out: Minimum inhibitory concentration
[24] = tested on: Bacillus cereus ATCC 9634; assay: as above; format: cell-based; details: ATCC9634, read-out: Minimum inhibitory concentration
[25] = tested on: Proteus morganii Jenkins KY 4298; assay: as above; format: cell-based; details: Morganella morganii, read-out: Minimum inhibitory concentration
[26] = tested on: Staphylococcus aureus KY 8953; assay: as above; format: cell-based; details: KY8953, resistant to Streptomycin, Kanamycin, Paromomycin, Tetracycline, Neomycin, Kanamycin B and Erythromycin, read-out: Minimum inhibitory concentration
Staphylococcus aureus = assay: Antibacterial activity against resistant Staphylococcus aureus (in words); format: cell-based; details: Staphylococcus aureus resistant to various known antibiotics
Escherichia coli KY 8327 = assay: Antibacterial spectrum, agar dilution method (pH 8.0); format: cell-based; details: KY8327, pH 8, read-out: Minimum inhibitory concentration
[27] = tested on: Escherichia coli Juhl KY 4286; assay: In vivo test on mice infected intraperitoneally with Escherichia coli, subcutaneous treatment; set-up: species or system mice infected with Escherichia coli Juhl KY 4286
Procedure: In this respect, in vivo tests have been conducted on mice infected intraperitoneally with Escherichia coli Juhl KY 4286. The thus infected mice were treated with various concentrations of Fortimicin A by subcutaneous […]. As a result the ED50 of Fortimicin A has been determined to be 6mg/kg. In view of the excellent antibacterial activity, the present substance, Fortimicin A, is considered to be useful in medical treatment as an antibacterial substance. Moreover, in view of the foregoing wide antibacterial spectrum, Fortimicin A may also be useful as a surface antibacterial agent.

Work on `COC1C(O)C(N)C(OC2OC(C(C)N)CCC2N)C(O)C1N(C)C(=O)CN` (centres unmarked) [Fortimicin A] yielded an MIC [1] of 0.41 µg/mL (≈ 1.01 µM), an MIC [2] of 5 µg/mL (≈ 12.3 µM) and an MIC [3] of 5 µg/mL (≈ 12.3 µM). For the same compound, the MIC [4] was 0.16 µg/mL (≈ 0.395 µM), the Antibacterial activity [5] was “satisfactory antibacterial activity” and the Antibacterial activity (Escherichia coli) was “strong antibacterial activity”. The MIC (Escherichia coli KY 8315) was 0.13 µg/mL (≈ 0.321 µM), the MIC (Proteus vulgaris KY 4296) was 0.41 µg/mL (≈ 1.01 µM) and the “Solubility in organic solvents” value ([6]; chloroform, benzene, ethyl acetate, butyl acetate, ethyl ether, butanol, petroleum ether, n-hexane, etc., free base) was “insoluble”. The “Solubility in ethanol and acetone” value ([6]; ethanol and acetone, free base) was “slightly soluble”, the Solubility in methanol ([6]; methanol, free base) was “soluble” and the “Solubility in the ordinary organic solvents” value ([6]; ordinary organic solvents) was “poorly soluble”. For the same compound, the Solubility in water ([6]; water, free base) was “soluble; also recorded: very soluble”, the MIC [7] was 10 µg/mL (≈ 24.7 µM) and the MIC [8] was 1.3 µg/mL (≈ 3.21 µM). The MIC [9] was 0.32 µg/mL (≈ 0.789 µM), the MIC (Escherichia coli KY 8314) was 0.26 µg/mL (≈ 0.641 µM) and the MIC [10] was 0.41 µg/mL (≈ 1.01 µM). It also gave an MIC [11] of 10 µg/mL (≈ 24.7 µM), an MIC [12] of 0.6 µg/mL (≈ 1.48 µM) and an MIC [13] of 0.3 µg/mL (≈ 0.74 µM). The MIC [14] was 0.8 µg/mL (≈ 1.97 µM), the Antibacterial activity [15] was “active upon Gram-positive and Gram-negative bacteria; also recorded: wide range of activity” and the MIC [16] was 0.8 µg/mL (≈ 1.97 µM). The MIC (Escherichia coli KY 8310) was 0.13 µg/mL (≈ 0.321 µM), the MIC (Escherichia coli KY 8302) was 0.26 µg/mL (≈ 0.641 µM) and the MIC [17] was 0.32 µg/mL (≈ 0.789 µM). For the same compound, the MIC [18] was 0.8 µg/mL (≈ 1.97 µM), the MIC [19] was 0.04 µg/mL (≈ 0.0986 µM) and the MIC (Escherichia coli KY 8332) was 0.3 µg/mL (≈ 0.74 µM). It also gave an MIC (Escherichia coli KY 8331) of 0.3 µg/mL (≈ 0.74 µM), an MIC [20] of 0.02 µg/mL (≈ 0.0493 µM) and an MIC [21] of 0.8 µg/mL (≈ 1.97 µM). For the same compound, the MIC [22] was 0.08 µg/mL (≈ 0.197 µM), the MIC (Escherichia coli ATCC 26) was 0.16 µg/mL (≈ 0.395 µM) and the MIC [23] was 0.08 µg/mL (≈ 0.197 µM). For the same compound, the MIC [24] was 0.6 µg/mL (≈ 1.48 µM), the MIC [25] was 1.6 µg/mL (≈ 3.95 µM) and the MIC [26] was 1.3 µg/mL (≈ 3.21 µM). For the same compound, the Antibacterial activity (Staphylococcus aureus) was “strong antibacterial activity”, the MIC (Escherichia coli KY 8327) was 0.13 µg/mL (≈ 0.321 µM) and the ED50 ([27]; Escherichia coli, JUHLKY4286, sc) was 6 mg/kg. The Therapeutic effects ([27]; therapy of infectious diseases caused by the tested bacteria) was “remarkable therapeutic effects”.
In the case of `CNC1C(O)C(OC2OC(C(C)N)CCC2N)C(N)C(O)C1OC` (centres unmarked) [Fortimicin B], the Antibacterial activity [15] is reported as “activity against Gram-positive and Gram-negative bacteria”.
